We go through 9 compounds from US4029688A, “Carbamic pesticidal compositions” (priority 1974, dated 1977).

Structures are written as SMILES. Converted amounts (≈) assume the structure as drawn.

The first assay deals with two-spotted mite (Tetranychus urticae Koch). Nature of the assay: Mite Foliage Spray Test. In kind it is in vivo. Also on record: key to Mite (Spray): C: no control; B: partial control; A: excellent control. As to conditions: Tetranychus urticae, foliar; Table II, side by side comparison; read-out: Mites Spray LD50. As to the method: (§1) Suspensions of the test compounds were prepared by dissolving one gram of compound in 50 milliliters of acetone in which had been dissolved 0.1 gram (10 percent of the weight of compound) of an alkylphenoxy polyethoxyethanol surfactant, as an emulsifying or dispersing agent. The resulting solution was mixed into 150 milliliters of water to give roughly 200 milliliters of a suspension containing the compound in finely divided form. The thus-prepared stock suspension contained 0.5 percent by weight of compound. The test concentrations in parts per million by weight employed in the tests described hereinbelow were obtained by appropriate dilutions of the stock suspension with water. The test procedures were as follows:
Adults and numphal stages of the two-spotted mite (Tetranychus urticae Koch), reared on Tendergreen bean plants at 80±5 percent relative humidity, were the test organisms. Infested leaves from a stock culture were placed on the primary leaves of two bean plants six to eight inches in height, growing in a 21/2 inch clay pot. 150 -200 Mites, a sufficient number for testing, transferred from the excised leaves to the fresh plants in a period of twenty-four hours. Following the twenty-four hour transfer period, the excised leaves were removed from the infested plants. The test compounds were formulated by diluting the stock suspension with water to give a suspension containing 500 parts of test compound per million parts of final formulation. The potted plants (one pot per compound) were placed on a revolving turntable and sprayed with 100-110 milliliters of test compound formulation by use of a DeVilbiss spray gun set at 40 psig. air pressure. This application, which lasted 25 seconds, was sufficient to wet the plants to run-off. As a control, 100-110 milliliters of a water solution containing acetone and emulsifier in the same concentrations as the test compound formulation, but containing no test compound, were also sprayed on infested plants. The sprayed plants were held at 80±5 percent relative humidity for six days, after which a mortality count of motile forms was made. Microscopic examination for motile forms was made on the leaves of the test plants. Any individual which was capable of locomotion upon prodding was considered living.
(§2) In the tests described above, the pesticidal activity of the compounds against aphid, mite, Southern Armyworm, Bean Beetle, house fly and nematode was rated as follows:
(§3) Comparison tests were conducted to assess the biological and chemical properties of certain representative species of the claimed invention in relation to their corresponding N-methyl carbamate compositions. The test procedures described above were employed in these experiments in order to determine the LD50 (number of parts per million of active ingredients required to achieve fifty percent mortality of the insects tested) for each of the compositions tested. In the case of the aphid and mite tests a side by side comparison was made of the N-methyl carbamate composition versus the corresponding perhalomethylsulfenyl derivative.
Take `CC(=NOC(=O)N(C)SC(Cl)(Cl)Cl)SCCC#N` [1-(2-Cyanoethylthio)acetaldehyde O-(N-methyl-N-trichloromethanesulfenylcarbamoyl)oxime]: the LC50 came out at 22 mg/L (≈ 62.7 µM).

`CN(SC(Cl)(Cl)Cl)C(=O)ON=CC(C)(C)C#N` [2-Methyl-2-cyanopropionaldehyde O-(N-methyl-N-trichloromethanesulfenylcarbamoyl)oxime]: the LC50 worked out at 23 mg/L (≈ 72.2 µM).

As for `CN(SC(Cl)(Cl)Cl)C(=O)ON=CC(C)(C)[N+](=O)[O-]` [2-Methyl-2-nitropropionaldehyde O-(N-methyl-N-trichloromethanesulfenylcarbamoyl)oxime], the LC50 stood at 40 mg/L (≈ 118 µM).

The assay is the same for the next values; noted with them: foliage spray, 500 parts per million, six days.
With `CSCC(C)=NOC(=O)N(C)SC(Cl)(Cl)Cl`, the “Mite (Spray)” value is listed as “C”.

Take `CSCC(=NOC(=O)N(C)SC(Cl)(Cl)Cl)C(C)(C)C`: the “Mite (Spray)” value is reported as “A”.

`CC(CSC(C)(C)C)=NOC(=O)N(C)SC(Cl)(Cl)Cl`: the “Mite (Spray)” value is listed as “C”.

As to `CC(=NOC(=O)N(C)SC(Cl)(Cl)Cl)C(C)(C)N=[N+]=[N-]`, the “Mite (Spray)” value is listed as “C”.

On to `CC(=NOC(=O)N(C)SC(Cl)(Cl)Cl)C(C)(C)[N+](=O)[O-]`, for which the “Mite (Spray)” value is recorded as “A”.

Turning to `CC(C[N+](=O)[O-])=NOC(=O)N(C)SC(Cl)(Cl)Cl`, the “Mite (Spray)” value was “C”.

Regarding `CC(=NOC(=O)N(C)SC(Cl)(Cl)Cl)SCCC#N` [1-(2-Cyanoethylthio)acetaldehyde O-(N-methyl-N-trichloromethanesulfenylcarbamoyl)oxime], the “Mite (Spray)” value is “A”.

In the case of `CN(SC(Cl)(Cl)Cl)C(=O)ON=CC(C)(C)C#N` [2-Methyl-2-cyanopropionaldehyde O-(N-methyl-N-trichloromethanesulfenylcarbamoyl)oxime], the “Mite (Spray)” value is listed as “A”.

Take `CN(SC(Cl)(Cl)Cl)C(=O)ON=CC(C)(C)[N+](=O)[O-]` [2-Methyl-2-nitropropionaldehyde O-(N-methyl-N-trichloromethanesulfenylcarbamoyl)oxime]: the “Mite (Spray)” value is given as “A”.

A further assay has as its system southern armyworm (Prodenia eridania, (Cram.)). Nature of the assay: Southern Armyworm Leaf Spray Test. Format: in vivo. Further details: key to Armyworm: C: no control; B: partial control; A: excellent control. As to conditions: Spodoptera eridania; Table II; read-out: Armyworm LD50. As to the method: as §1
Larvae of the southern armyworm (Prodenia eridania, (Cram.)), reared on Tendergreen bean plants at a temperature of 80°±5° F. and a relative humidity of 50±5 percent, constituted the test insects.
The test compounds were formulated by diluting the stock suspension with water to give a suspension containing 500 parts of test compound per million parts of final formulation. Potted Tendergreen bean plants of standard height and age were placed on a revolving turntable and sprayed with 100-110 milliliters of test compound formulation by use of a DeVilbiss spray gun set at 10 psig air pressure. This application, which lasted 25 seconds, was sufficient to wet plants to run-off. As a control, 100-110 milliliters of a water-acetone-emulsifier solution containing no test compound were also sprayed on infested plants. When dry, the paired leaves were separated and each one was placed in a 9 centimeter Petri dish lined with moistened filter paper. Five randomly selected larvae were introduced into each dish and the dishes were closed. The closed dishes were labeled and held at 80-85° F. for three days. Although the larvae could easily consume the whole leaf within twenty-four hours, no more food was added. Larvae which were unable to move the length of the body, even upon stimulation by prodding, were considered dead. Percent mortality was recorded for various concentration levels.
as §2, §3
For the compound `CC(=NOC(=O)N(C)SC(Cl)(Cl)Cl)SCCC#N` [1-(2-Cyanoethylthio)acetaldehyde O-(N-methyl-N-trichloromethanesulfenylcarbamoyl)oxime], the LC50 came to 6 mg/L (≈ 17.1 µM).

Regarding `CN(SC(Cl)(Cl)Cl)C(=O)ON=CC(C)(C)C#N` [2-Methyl-2-cyanopropionaldehyde O-(N-methyl-N-trichloromethanesulfenylcarbamoyl)oxime], the LC50 amounted to 50 mg/L (≈ 157 µM).

For the compound `CN(SC(Cl)(Cl)Cl)C(=O)ON=CC(C)(C)[N+](=O)[O-]` [2-Methyl-2-nitropropionaldehyde O-(N-methyl-N-trichloromethanesulfenylcarbamoyl)oxime], the LC50 worked out at 130 mg/L (≈ 384 µM).

Staying with this assay, now noted: leaf spray, 500 parts per million, three days.
For the compound `CSCC(C)=NOC(=O)N(C)SC(Cl)(Cl)Cl`, the Armyworm entry is given as “C”.

As for `CSCC(=NOC(=O)N(C)SC(Cl)(Cl)Cl)C(C)(C)C`, the Armyworm entry is given as “C”.

In the case of `CC(CSC(C)(C)C)=NOC(=O)N(C)SC(Cl)(Cl)Cl`, the Armyworm entry is reported as “C”.

With `CC(=NOC(=O)N(C)SC(Cl)(Cl)Cl)C(C)(C)N=[N+]=[N-]`, the Armyworm result is listed as “C”.

Consider `CC(=NOC(=O)N(C)SC(Cl)(Cl)Cl)C(C)(C)[N+](=O)[O-]`, for which the Armyworm entry is recorded as “B”.

With `CC(C[N+](=O)[O-])=NOC(=O)N(C)SC(Cl)(Cl)Cl`, the Armyworm entry is recorded as “C”.

With `CC(=NOC(=O)N(C)SC(Cl)(Cl)Cl)SCCC#N` [1-(2-Cyanoethylthio)acetaldehyde O-(N-methyl-N-trichloromethanesulfenylcarbamoyl)oxime], the Armyworm entry is “A”.

Turning to `CN(SC(Cl)(Cl)Cl)C(=O)ON=CC(C)(C)C#N` [2-Methyl-2-cyanopropionaldehyde O-(N-methyl-N-trichloromethanesulfenylcarbamoyl)oxime], the Armyworm result is “A”.

For the compound `CN(SC(Cl)(Cl)Cl)C(=O)ON=CC(C)(C)[N+](=O)[O-]` [2-Methyl-2-nitropropionaldehyde O-(N-methyl-N-trichloromethanesulfenylcarbamoyl)oxime], the Armyworm entry is listed as “A”.

A further assay has as its system Mexican bean beetle (Epilachna varivestis, Muls.). Nature of the assay: Mexican Bean Beetle Leaf Spray Test. In kind it is in vivo. Further details: key to Beetle: C: no control; B: partial control; A: excellent control. The note with it: Epilachna varivestis; Table II; read-out: Beetle LD50. How it is done: as §1
Fourth instar larvae of the Mexican bean beetle (Epilachna varivestis, Muls.), reared on Tendergreen bean plants at a temperature of 80°±5° F. and 50±5 percent relative humidity, were the test insects.
The test compounds were formulated by diluting the stock suspension with water to give a suspension containing 500 parts of test compound per million parts of final formulation. Potted Tendergreen bean plants of standard height and age were placed on a revolving turntable and sprayed with 100-110 milliliters of test compound formulation by use of a DeVilbiss spray gun set at 10 psig air pressure. This application, which lasted 25 seconds, was sufficient to wet plants to run-off. As a control, 100-110 milliliters of a water-acetone-emulsifier solution containing no test compound were also sprayed on infested plants. When dry, the paired leaves were separated and each was placed in a 9 centimeter Petri dish lined with moistened filter paper. Five randomly selected larvae were introduced into each dish, and the dishes were closed. The closed dishes were labeled and held at a temperature of 80°±5° F. for three days. Although the larvae could easily consume the leaf within 24 to 48 hours, no more food was added. Larvae which were unable to move the length of the body, even upon stimulation, were considered dead.
as §2, §3
As to `CC(=NOC(=O)N(C)SC(Cl)(Cl)Cl)SCCC#N` [1-(2-Cyanoethylthio)acetaldehyde O-(N-methyl-N-trichloromethanesulfenylcarbamoyl)oxime], the LC50 amounted to 15 mg/L (≈ 42.8 µM).

As for `CN(SC(Cl)(Cl)Cl)C(=O)ON=CC(C)(C)C#N` [2-Methyl-2-cyanopropionaldehyde O-(N-methyl-N-trichloromethanesulfenylcarbamoyl)oxime], the LC50 was 45 mg/L (≈ 141 µM).

Turning to `CN(SC(Cl)(Cl)Cl)C(=O)ON=CC(C)(C)[N+](=O)[O-]` [2-Methyl-2-nitropropionaldehyde O-(N-methyl-N-trichloromethanesulfenylcarbamoyl)oxime], the LC50 is 17 mg/L (≈ 50.2 µM).

Still in this assay, the particulars now being: leaf spray, 500 parts per million, three days.
On to `CSCC(C)=NOC(=O)N(C)SC(Cl)(Cl)Cl`, for which the Beetle entry was “C”.

On to `CSCC(=NOC(=O)N(C)SC(Cl)(Cl)Cl)C(C)(C)C`, for which the Beetle entry is reported as “A”.

For the compound `CC(CSC(C)(C)C)=NOC(=O)N(C)SC(Cl)(Cl)Cl`, the Beetle entry is “C”.

Regarding `CC(=NOC(=O)N(C)SC(Cl)(Cl)Cl)C(C)(C)N=[N+]=[N-]`, the Beetle entry is “A”.

Take `CC(=NOC(=O)N(C)SC(Cl)(Cl)Cl)C(C)(C)[N+](=O)[O-]`: the Beetle entry was “A”.

Consider `CC(C[N+](=O)[O-])=NOC(=O)N(C)SC(Cl)(Cl)Cl`, for which the Beetle result was “B”.

In the case of `CC(=NOC(=O)N(C)SC(Cl)(Cl)Cl)SCCC#N` [1-(2-Cyanoethylthio)acetaldehyde O-(N-methyl-N-trichloromethanesulfenylcarbamoyl)oxime], the Beetle result was “A”.

Turning to `CN(SC(Cl)(Cl)Cl)C(=O)ON=CC(C)(C)C#N` [2-Methyl-2-cyanopropionaldehyde O-(N-methyl-N-trichloromethanesulfenylcarbamoyl)oxime], the Beetle result is recorded as “A”.

On to `CN(SC(Cl)(Cl)Cl)C(=O)ON=CC(C)(C)[N+](=O)[O-]` [2-Methyl-2-nitropropionaldehyde O-(N-methyl-N-trichloromethanesulfenylcarbamoyl)oxime], for which the Beetle entry is “A”.

The test system of another assay is root-knot nematode, Meloidogyne incognita var. acrita. Nature of the assay: Nematocide Test. Format: in vivo. Also on record: key: C: no control; B: partial control; A: excellent control. The note with it: 3.33 m.g. per jar, galling of cucumber rated after approximately 3 weeks. How it is done:
The test organism used was the infective migratory larvae of the root-knot nematode, Meloidogyne incognita var. acrita, reared in the greenhouse on roots of cucumber plants. Infected plants were removed from the culture, and the roots are chopped very finely. A small amount of this inoculum was added to a pint jar containing approximately 180 cc. of soil. The jars were capped and incubated for one week at room temperature. During this period eggs of the nematode were hatched, and the larval forms migrated into the soil.
Ten ml. of the test formulation were added to each of the two jars for each dosage tested. Following the addition of chemical, the jars were capped, and the contents thoroughly mixed on a ball mill for 5 minutes.
The test compounds were formulated by a standard procedure of solution in acetone addition of an emulsifier, and dilution with water. Primary screening tests were conducted at 3.33 m.g. of the test compound per jar.
The jars were left capped at room temperature for a period of 48 hours, and the contents then transferred to 3 inch pots. Subsequently, the pots were seeded to cucumber as an indicator crop and placed in the greenhouse where they were cared for in the normal fashion for approximately 3 weeks.
The cucumber plants were then taken from the pots, the soil removed from the roots, and the amount of galling visually rated.
In the tests described above, the pesticidal activity of the compounds against aphid, mite, Southern Armyworm, Bean Beetle, house fly and nematode was rated as follows: […]
On to `CSCC(C)=NOC(=O)N(C)SC(Cl)(Cl)Cl`, for which the Nematode result is listed as “C”.

Take `CSCC(=NOC(=O)N(C)SC(Cl)(Cl)Cl)C(C)(C)C`: the Nematode entry is “C”.

Turning to `CC(CSC(C)(C)C)=NOC(=O)N(C)SC(Cl)(Cl)Cl`, the Nematode result is reported as “C”.

On to `CC(=NOC(=O)N(C)SC(Cl)(Cl)Cl)C(C)(C)N=[N+]=[N-]`, for which the Nematode result is recorded as “C”.

On to `CC(=NOC(=O)N(C)SC(Cl)(Cl)Cl)C(C)(C)[N+](=O)[O-]`, for which the Nematode result is “A”.

On to `CC(C[N+](=O)[O-])=NOC(=O)N(C)SC(Cl)(Cl)Cl`, for which the Nematode entry is listed as “C”.

`CC(=NOC(=O)N(C)SC(Cl)(Cl)Cl)SCCC#N` [1-(2-Cyanoethylthio)acetaldehyde O-(N-methyl-N-trichloromethanesulfenylcarbamoyl)oxime]: the Nematode entry is on record as “C”.

On to `CN(SC(Cl)(Cl)Cl)C(=O)ON=CC(C)(C)C#N` [2-Methyl-2-cyanopropionaldehyde O-(N-methyl-N-trichloromethanesulfenylcarbamoyl)oxime], for which the Nematode entry is “C”.

In the case of `CN(SC(Cl)(Cl)Cl)C(=O)ON=CC(C)(C)[N+](=O)[O-]` [2-Methyl-2-nitropropionaldehyde O-(N-methyl-N-trichloromethanesulfenylcarbamoyl)oxime], the Nematode result is listed as “A”.
